≈ marks a conversion by molar mass, not a printed value. Read-outs that look alike come from different tables or passages of the source. Where no end group is shown, it is not given here.
Assay: Solubility study
Type: physicochemical
[1] = water, read-out: Solubility Water

| solubility (PBS, read-out: Solubility PBS) | solubility in water (water) | solubility [1] | solubility in aqueous buffers (aqueous buffers such as PBS) | Compound |
| --- | --- | --- | --- | --- |
| 80 µg/mL | improved water solubility | 360 µg/mL |  | YQKLSYLDFQYQKD [G7K13] |
| 120 µg/mL (≈ 65.8 µM) | water insoluble |  | weakly soluble | CC(C)C[C@H](NC(=O)[C@H](CCC(N)=O)NC(=O)[C@H](Cc1ccc(O)cc1)NC(=O)[C@H](CCC(N)=O)NC(=O)[C@H](Cc1ccccc1)NC(=O)[C@H](CC(=O)O)NC(=O)[C@H](CC(C)C)NC(=O)[C@H](Cc1ccc(O)cc1)NC(=O)[C@H](CO)NC(=O)[C@H](CC(C)C)NC(=O)[C@H](CCCCN)NC(=O)[C@H](CCC(N)=O)NC(=O)[C@@H](N)Cc1ccc(O)cc1)C(=O)N[C@@H](CC(=O)O)C(=O)O [G7] |
| 30 µg/mL |  | 130 µg/mL |  | YQKLSYLDFQKQLD [G7K11] |
| 80 µg/mL |  | 180 µg/mL |  | YQKLSYLDFQYQKDK [G7K15] |
| 240 µg/mL | highest solubility | 780 µg/mL |  | YKKLSYLDFQYQLD [G7K2] |
| 60 µg/mL (≈ 30.7 µM) | improved water solubility | 380 µg/mL (≈ 195 µM) |  | CC(C)C[C@H](NC(=O)[C@H](CCC(N)=O)NC(=O)[C@H](Cc1ccc(O)cc1)NC(=O)[C@H](CCC(N)=O)NC(=O)[C@H](Cc1ccccc1)NC(=O)[C@H](CC(=O)O)NC(=O)[C@H](CC(C)C)NC(=O)[C@H](Cc1ccc(O)cc1)NC(=O)[C@H](CO)NC(=O)[C@H](CC(C)C)NC(=O)[C@H](CCCCN)NC(=O)[C@H](CCC(N)=O)NC(=O)[C@H](Cc1ccc(O)cc1)NC(=O)[C@@H](N)CCCCN)C(=O)N[C@@H](CC(=O)O)C(=O)O [G7K-1] |

From patent publication US12582695B2, “Compositions and methods for treating glioma” (Instytut Biologii Doświadczalnej im. Marcelego Nenckiego …, priority 2018, dated 2026)
